Experimental data: patent publication US20030008847A1, “Treatment of diabetes and related pathologies” (Medicure, Inc., priority 1999, published 2003)

Columns and labels:
[1] = system: rats induced with Type I diabetes; assay: Type I diabetes in rats induced with streptozotocin; glucose and insulin levels; format: in vivo, Male Sprague-Dawley rats; conditions: compared to diabetic group, Insulin 1 unit and 3 unit, P-5-P 25 mg/kg daily; for plasma glucose levels: FIG. 1; for plasma insulin levels: FIG. 2
Protocol: Male Sprague-Dawley (Charles River Laboratories, Montreal, Canada) rats weighing approximately 200 g are randomly separated into control and experimental groups. All experimental animals are given an intravenous injection of 0.1 M citrate buffered streptozotocin (pH 4.5) at a dosage of 65 mg/kg of body weight to induce diabetes mellitus. All control animals receive an intravenous injection of 0.1 M citrate buffer (pH 4.5) alone. One experimental group of rats also receives daily doses of pyridoxal-5′-phosphate (25 mg/kg body weight) (Aldrich Canada Ltd., Ontario, Canada). A second experimental group receives daily subcutanteous injections of Humulin® N (3 units per day) (insulin isophene, human biosynthetic; Eli Lilly and Co., Indianapolis, Ind.). A third experimental group receives both daily subcutaneous injections of Humulin® N (3 units per day) and a daily dose of pyridoxal-5′-phosphate (25 mg/kg body weight). […] […] All animals are fed rat chow and water ad libitum. Plasma glucose levels were done using the Infinity Glucose Reagent® (Sigma Diagnostics, St. Louis, Mo.).

[2] = system: rats induced with Type II diabetes; assay: Type II diabetes in rats induced by sucrose feeding; plasma glucose, plasma insulin, systolic blood pressure; format: in vivo, Male Sprague-Dawley rats; conditions: P-5-P 25 mg/kg orally/day; for plasma glucose levels: FIG. 3; for plasma glucose levels / plasma insulin levels: compared to diabetic group, tolbutamide 40 and 20 mg/kg, 16 weeks; for plasma insulin levels: FIG. 4
Protocol: To determine the effect of a compound suitable for use in methods of the invention on glucose and insulin levels, as well as increases in systolic blood pressure, rats having type II diabetes are administered pyridoxal-5'-phosphate, either alone or in combination with sucrose and/or tolbutamide, and their systolic blood pressure, urine and blood glucose and insulin levels are determined. […] et al: Isr J Med Sci; 33:153-159. […] et al: Isr J Med Sci; 33:153-159, a high sucrose or fructose diet for a prolonged period is one technique used to induce Type II diabetes, specifically hypertension associated with hyperglycemia and hyperinsulinemia in animals. Male Sprague-Dawley (Charles River Laboratories, Montreal, Canada) rats weighing approximately 200 g are randomly separated into the following groups with each group having 5 amimals: a) The control group that was fed a normal diet and provided with drinking water b) The sucrose group that was fed 35% sucrose (35 gm sucrose/100 ml of drinking water/day) with an average intake of 150 ml/rat/day c) The sucrose+[…] group that was fed sucrose as stated in b above and 25 mg/kg orally/day of […] g) The sucrose+tolbutamide group that was fed sucrose as stated in b above and 20 mg/kg orally/day of tolbutamide. Total duration of the study was 16 weeks. Plasma insulin levels were measured using Rat Insulin RIA Kit (Linco Research Inc., St. Charles, Mo.). Plasma glucose levels were done using the Infinity Glucose Reagent® (Sigma Diagnostics, St. Louis, Mo.).

Molecule	plasma glucose levels [1]	plasma insulin levels [1]	plasma glucose levels [2]	plasma insulin levels [2]	rise in systolic blood pressure ([2]; FIG. 5, tail cuff, compared to diabetic and tolbutamide treatment groups)
Insulin: Humulin® N (insulin isophene, human biosynthetic; Eli Lilly and Co.)	significantly reduced	significantly increased			
CCCCNC(=O)NS(=O)(=O)c1ccc(C)cc1 [tolbutamide, reference compound]			significantly decreased	significantly decreased	
Cc1ncc(COP(=O)(O)O)c(C=O)c1O [Example P-5-P, pyridoxal-5′-phosphate]	significantly reduced	significantly increased	significantly decreased	significantly decreased	significantly decreased
